From patent publication US12491243B2, “Formulation containing TLR agonist and methods of use” (ACCESS TO ADVANCED HEALTH INSTITUTE, priority 2016, dated 2025)

What was measured:
[1] = biological target: T1, human TLR7 (Homo sapiens, UniProt Q9NYK1); conditions: in vitro; reference (5); cited from earlier work
T1 sequence (Q9NYK1 27-1049): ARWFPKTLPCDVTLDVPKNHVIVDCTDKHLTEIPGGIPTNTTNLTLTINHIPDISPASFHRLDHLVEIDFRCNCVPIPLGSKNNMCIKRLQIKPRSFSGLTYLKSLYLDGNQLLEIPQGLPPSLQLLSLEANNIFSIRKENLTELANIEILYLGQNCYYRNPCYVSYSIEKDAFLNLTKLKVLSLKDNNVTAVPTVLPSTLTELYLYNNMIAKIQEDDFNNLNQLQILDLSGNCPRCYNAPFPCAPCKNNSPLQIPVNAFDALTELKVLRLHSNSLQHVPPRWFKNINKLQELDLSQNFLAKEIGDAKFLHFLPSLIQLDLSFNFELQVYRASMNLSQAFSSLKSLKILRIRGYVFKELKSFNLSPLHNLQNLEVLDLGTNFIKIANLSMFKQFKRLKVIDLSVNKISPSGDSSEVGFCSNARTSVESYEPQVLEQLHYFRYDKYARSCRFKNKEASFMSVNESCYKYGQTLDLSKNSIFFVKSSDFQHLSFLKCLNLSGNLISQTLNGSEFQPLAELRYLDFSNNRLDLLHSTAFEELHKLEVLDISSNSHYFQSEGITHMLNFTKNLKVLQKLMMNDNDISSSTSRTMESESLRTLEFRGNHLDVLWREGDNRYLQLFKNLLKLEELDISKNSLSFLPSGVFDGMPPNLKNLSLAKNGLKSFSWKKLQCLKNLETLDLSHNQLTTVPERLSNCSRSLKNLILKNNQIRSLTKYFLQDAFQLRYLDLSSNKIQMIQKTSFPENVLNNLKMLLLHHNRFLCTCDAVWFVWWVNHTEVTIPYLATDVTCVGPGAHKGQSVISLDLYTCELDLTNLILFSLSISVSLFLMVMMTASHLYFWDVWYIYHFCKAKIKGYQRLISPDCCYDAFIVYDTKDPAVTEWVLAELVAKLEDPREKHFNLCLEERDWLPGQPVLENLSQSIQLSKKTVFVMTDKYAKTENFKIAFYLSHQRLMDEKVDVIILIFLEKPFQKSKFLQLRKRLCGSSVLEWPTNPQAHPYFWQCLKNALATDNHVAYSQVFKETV

[2] = biological target: T2, human TLR8 (Homo sapiens, UniProt Q9NR97); conditions: in vitro; reference (5); cited from earlier work
T2 sequence (Q9NR97 27-1041): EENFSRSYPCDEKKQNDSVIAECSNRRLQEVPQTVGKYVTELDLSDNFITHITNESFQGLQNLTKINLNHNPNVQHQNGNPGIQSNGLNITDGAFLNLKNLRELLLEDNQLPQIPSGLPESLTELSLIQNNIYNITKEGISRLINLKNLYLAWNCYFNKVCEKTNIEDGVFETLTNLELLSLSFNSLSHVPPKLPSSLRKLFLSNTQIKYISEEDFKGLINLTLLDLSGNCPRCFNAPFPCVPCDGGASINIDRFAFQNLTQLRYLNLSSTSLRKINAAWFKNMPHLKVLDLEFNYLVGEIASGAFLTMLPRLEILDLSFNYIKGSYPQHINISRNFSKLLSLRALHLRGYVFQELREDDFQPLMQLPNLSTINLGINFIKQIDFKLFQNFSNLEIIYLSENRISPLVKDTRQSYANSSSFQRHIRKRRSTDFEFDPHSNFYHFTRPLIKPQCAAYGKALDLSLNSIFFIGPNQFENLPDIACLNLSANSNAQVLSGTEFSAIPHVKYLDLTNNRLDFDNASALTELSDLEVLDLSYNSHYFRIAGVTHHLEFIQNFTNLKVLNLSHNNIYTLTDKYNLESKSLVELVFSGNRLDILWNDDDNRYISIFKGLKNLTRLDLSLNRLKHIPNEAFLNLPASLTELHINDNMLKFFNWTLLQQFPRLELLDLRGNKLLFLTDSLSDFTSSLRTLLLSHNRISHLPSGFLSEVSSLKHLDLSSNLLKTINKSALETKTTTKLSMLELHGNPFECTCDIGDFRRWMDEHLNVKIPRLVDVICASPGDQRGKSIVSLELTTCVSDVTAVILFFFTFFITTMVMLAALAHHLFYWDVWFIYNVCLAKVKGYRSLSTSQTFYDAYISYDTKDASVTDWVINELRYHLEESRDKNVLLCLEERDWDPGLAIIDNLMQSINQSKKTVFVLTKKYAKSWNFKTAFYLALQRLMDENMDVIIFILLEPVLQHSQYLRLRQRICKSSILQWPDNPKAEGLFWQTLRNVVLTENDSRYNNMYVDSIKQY

[3] = imidazoquinolines such as 3M-052; reference (9); cited from earlier work
[4] = Adsorption to Alhydrogel® (aluminum oxyhydroxide): unbound material assayed in centrifuged supernatant; type: physicochemical; conditions: for TLR Agonist Conc. In Supernatant (T = 16 wks): storage at 5° C.; for TLR Agonist Conc. In Supernatant (T = 16 wks) / TLR Agonist Conc. In Supernatant (T = 0): the ligand itself, in combinations first value = 3M-052
Method: Adjuvant formulation characterization and stability. Aqueous nanosuspensions were characterized for particle size by dynamic light scattering (DLS) using the Malvern Instruments (Worcestershire, UK) Zetasizer Nano-S or —ZS. Aqueous nanosuspensions were diluted 1:10 or 1:100 fold in water in a polystyrene cuvette prior to analysis, which consisted of three measurements resulting in a scattering intensity-biased average diameter value reported as the Z-ave. Zeta potential was measured using the Zetasizer Nano-ZS using a disposable capillary cell, with nine consecutive measurements collected from each sample prepared at 1:10 dilution in water. In general, 3M-052 concentration was measured by UV absorbance at 322.5 nm after diluting formulations 1:20 into ethanol:HCl (98:2 v:v) and comparing to a standard curve. The dilution into organic solvent removes potential interference from light scattering of the nanosuspension particles. However, for the 3M-052 binding isotherm, where maximum sensitivity was desired, no dilution was performed for the samples or the standards. Alternatively, 3M-052 concentration was determined by reverse phase HPLC with charged aerosol detection. TLR9 CpG control concentration was measured by UV absorbance at 260 nm after 1:20 dilution into ethanol:HCl. GLA concentration was measured by reverse-phase HPLC with an C18 column (Atlantis T3 or Agilent XBridge) and charged aerosol detection (CAD) using a methanol:chloroform:water mobile gradient as described previously (6). To detect unbound TLR ligand, alum-containing formulations were centrifuged briefly as indicated and the supernatant assayed by UV absorbance or HPLC-CAD. Depending on experiment, centrifugation time was 2-5 min at 2,000-16,000×g. In some experiments (FIG. 2D and Table 4), to remove the influence of saline or buffer salts on the sedimentation of TLR agonists in aluminum salt preparations, aluminum salts were first centrifuged and the supernatants removed and replaced with water; this process was repeated for another wash prior to employing the aluminum salts in the binding studies.
Antigen adsorption to aluminum salts. Binding efficiency of 3M-052 and ID93 or HIV gp120 antigen to Alhydrogel® and AdjuPhos® was determined by UV-Vis Spectroscopy and SDS-PAGE with silver stain. 1-mL of formulation was prepared by mixing saline diluent, antigen, 3M-052-AF, and/or aluminum salt. To determine HIV gp120 antigen adsorption, 30 μl of sample supernatant was mixed with 10 μl of 4× reducing or non-reducing LDS Sample Buffer, following which 20-25 μl was loaded into a 10-lane SDS-PAGE gel with 15 μl of SeeBlue2 Prestained Standard. To determine ID93 adsorption, 45 μl of sample supernatant was mixed with 15 μl of 4× reducing LDS Sample Buffer, following which 25 μl was loaded into a 10-lane SDS-PAGE gel with 15 μl of SeeBlue2 Prestained Standard. The gels were run for 55 minutes at 190 V and then placed into a fixing solution of 50:40:10 EtOH:CH3COOH:H2O for overnight. […]
To determine the adsorption capacity of Alhydrogel® for 3M-052-AF, the nanosuspension at various concentrations was mixed with aluminum oxyhydroxide and allowed to sit for ˜30 min with intermittent vortexing, followed by centrifugation such that the aluminum particles pelleted. […] The adsorption stability of 3M-052-AF on Alhydrogel® over time was evaluated by assaying samples for unbound 3M-052 before and after storage at 5° C. for 16 wks. […]

CCCCCCCCCCCCCCCCCC(=O)NCCCCOn1c(CCCC)nc2c(N)nc3ccccc3c21 [3M-052, N-(4-{[4-amino-2-butyl-1H-imidazo[4,5-c]quinolin-1-yl]oxy}butyl)octadecanamide]
activation of human TLR7 [1]: activates
activation of human TLR8 [2]: activates
pKa [3]: ~7
effect of other TLR ligands on adsorption of 3M-052 to aluminum oxyhydroxide ([4]; co-adsorbed GLA or TLR9 CpG control (Table 2)): did not appear to interfere
TLR Agonist Conc. In Supernatant (T = 16 wks) ([4]; no aluminum salt (control)): 74 ± 1 µg/mL
TLR Agonist Conc. In Supernatant (T = 0) ([4]; no aluminum salt (control)): 94 ± 1 µg/mL
TLR Agonist Conc. In Supernatant (T = 16 wks) ([4]; with Alhydrogel®): 10 ± 1 µg/mL
TLR Agonist Conc. In Supernatant (T = 0) ([4]; with Alhydrogel®): 11 ± 1 µg/mL
